Results taken from patent US20060069132A1, “Azolecarboxamide herbicides” (priority 2004, published 2006).

Assays:
rice = assay: Test B flooded paddy test; assay type: in vivo, Oryza sativa; settings: 1000 g ai/ha, scale 0 to 100 (0 no effect, 100 complete control)
Method in brief: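 Postemergence plants were sprayed with formulated test chemicals at 2 to 18 cm height (1- to 4-leaf stage); paddy species were grown to the 2-leaf stage. After 13 to 15 days in a greenhouse, injury was rated visually against untreated controls on a 0–100 scale (0 = no effect, 100 = complete control).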

large crabgrass = assay: Test B pre-/postemergence herbicide test; assay type: in vivo, Digitaria sanguinalis; settings: for Crabgrass, Large plant response rating (0 to 100 scale) / Plant response rating, Crabgrass, Large: 0 = no effect, 100 = complete control, preemergence; for Crabgrass, Large plant response rating: postemergence
Method in brief: (§1)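 Response was scored visually 13 to 15 days after treatment against untreated greenhouse controls, 0 meaning no effect and 100 complete control. Formulations (solvent mixture plus surfactant) went onto soil after planting, onto foliage of 1- to 4-leaf plants, and onto 2-leaf plants in a flooded paddy set including rice and barnyardgrass.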

pigweed = assay: Test B pre-/postemergence herbicide test; assay type: in vivo, Amaranthus retroflexus; settings: for Pigweed plant response rating (0 to 100 scale) / Plant response rating, Pigweed: 0 = no effect, 100 = complete control, preemergence; for Pigweed plant response rating: postemergence
Method in brief: as §1

barnyardgrass [1] = assay: Test B flooded paddy test; assay type: in vivo, Echinochloa crus-galli; settings: 1000 g ai/ha, scale 0 to 100 (0 no effect, 100 complete control)
Method in brief: (§2)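 After treating 2-leaf paddy plants or 2–18 cm postemergence plants (1 to 4 leaves) with formulated chemical, researchers kept them in a greenhouse for 13–15 days. Effects were judged visually versus controls: 0 indicates none, 100 total control.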

wheat = assay: Test B postemergence herbicide test; assay type: in vivo, Triticum aestivum; parameters: key to Wheat plant response rating: 0 = no effect, 100 = complete control; settings: postemergence
Method in brief: (§3)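 Treated at 2-leaf (paddy) or 1–4-leaf, 2–18 cm (postemergence); greenhouse 13–15 d; visual score vs control, 0 none to 100 complete control; dash = not tested.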

ducksalad = assay: Test B flooded paddy test; assay type: in vivo, Heteranthera limosa; settings: 1000 g ai/ha, scale 0 to 100 (0 no effect, 100 complete control)
Method in brief: as §2

lambsquarters = assay: Test B pre-/postemergence herbicide test; assay type: in vivo, Chenopodium album; settings: for Lambsquarters plant response rating (0 to 100 scale) / Plant response rating, Lambsquarters: 0 = no effect, 100 = complete control, preemergence; for Lambsquarters plant response rating: postemergence
Method in brief: as §1

wild oat = assay: Test B postemergence herbicide test; assay type: in vivo, Avena fatua; settings: postemergence
Method in brief: as §3

giant foxtail = assay: Test B pre-/postemergence herbicide test; assay type: in vivo, Setaria faberi; settings: for Foxtail, Giant plant response rating (0 to 100 scale) / Plant response rating, Foxtail, Giant: 0 = no effect, 100 = complete control, preemergence; for Foxtail, Giant plant response rating: postemergence
Method in brief: as §1

velvetleaf = assay: Test B pre-/postemergence herbicide test; assay type: in vivo, Abutilon theophrasti; settings: for Velvetleaf plant response rating (0 to 100 scale) / Plant response rating, Velvetleaf: 0 = no effect, 100 = complete control, preemergence; for Velvetleaf plant response rating: postemergence
Method in brief: as §1

corn = assay: Test B pre-/postemergence herbicide test; assay type: in vivo, Zea mays; settings: for Corn plant response rating (0 to 100 scale) / Plant response rating, Corn: 0 = no effect, 100 = complete control, preemergence; for Corn plant response rating: postemergence
Method in brief: as §1

morningglory = assay: Test B pre-/postemergence herbicide test; assay type: in vivo, Ipomoea coccinea; settings: for Morningglory plant response rating (0 to 100 scale) / Plant response rating, Morningglory: 0 = no effect, 100 = complete control, preemergence; for Morningglory plant response rating: postemergence
Method in brief: (§4)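 Flooded paddy rice and barnyardgrass were treated at the 2-leaf stage; upland plantings received compound either on sown seed or on 1- to 4-leaf seedlings. All were kept 13–15 days in a greenhouse and scored visually, 0–100, relative to untreated plants.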

cocklebur = assay: Test B pre-/postemergence herbicide test; assay type: in vivo, Xanthium strumarium; settings: for Cocklebur plant response rating (0 to 100 scale) / Plant response rating, Cocklebur: 0 = no effect, 100 = complete control, preemergence; for Cocklebur plant response rating: postemergence
Method in brief: as §4

Surinam grass = assay: Test B pre-/postemergence herbicide test; assay type: in vivo, Urochloa decumbens; settings: for Surinam Grass plant response rating (0 to 100 scale) / Plant response rating, Surinam Grass: 0 = no effect, 100 = complete control, preemergence; for Surinam Grass plant response rating: postemergence
Method in brief: as §1

barnyardgrass [2] = assay: Test B pre-/postemergence herbicide test; assay type: in vivo, Echinochloa crus-galli; settings: for Barnyardgrass plant response rating (0 to 100 scale) / Plant response rating, Barnyardgrass: 0 = no effect, 100 = complete control, preemergence; for Barnyardgrass plant response rating: postemergence
Method in brief: as §4

[3] = 125 g ai/ha, visual rating, scale 0 (no effect) to 100 (complete control)
[4] = 500 g ai/ha, scale 0 to 100, 0 is no effect, 100 is complete control

CCNC(=O)c1ccc(F)c(NC(=O)C2CC(C(C)(C)C)=NN2CC)c1 (racemic) [Compound 269]
Rice plant response rating (rice): 80 | Crabgrass, Large plant response rating (0 to 100 scale) (large crabgrass; 125 g ai/ha): 100 | Plant response rating, Crabgrass, Large (large crabgrass; 500 g ai/ha, visual rating): 100 | Crabgrass, Large plant response rating (large crabgrass; [3]): 10 | Crabgrass, Large plant response rating (large crabgrass; [4]): 20 | Pigweed plant response rating (0 to 100 scale) (pigweed; 125 g ai/ha): 100 | Plant response rating, Pigweed (pigweed; 500 g ai/ha, visual rating): 100 | Pigweed plant response rating (pigweed; [3]): 60 | Pigweed plant response rating (pigweed; [4]): 60 | Barnyardgrass plant response rating (barnyardgrass [1]): 90 | Wheat plant response rating (wheat; [3]): 20 | Wheat plant response rating (wheat; [4]): 30 | Ducksalad plant response rating (ducksalad): 80 | Lambsquarters plant response rating (0 to 100 scale) (lambsquarters; 125 g ai/ha): 100 | Plant response rating, Lambsquarters (lambsquarters; 500 g ai/ha, visual rating): 100 | Lambsquarters plant response rating (lambsquarters; [3]): 50 | Lambsquarters plant response rating (lambsquarters; [4]): 70 | Oat, Wild plant response rating (wild oat; [3]): 20 | Oat, Wild plant response rating (wild oat; [4]): 30 | Foxtail, Giant plant response rating (0 to 100 scale) (giant foxtail; 125 g ai/ha): 80 | Plant response rating, Foxtail, Giant (giant foxtail; 500 g ai/ha, visual rating): 100 | Foxtail, Giant plant response rating (giant foxtail; [3]): 30 | Foxtail, Giant plant response rating (giant foxtail; [4]): 30 | Velvetleaf plant response rating (0 to 100 scale) (velvetleaf; 125 g ai/ha): 60 | Plant response rating, Velvetleaf (velvetleaf; 500 g ai/ha, visual rating): 100 | Velvetleaf plant response rating (velvetleaf; [3]): 10 | Velvetleaf plant response rating (velvetleaf; [4]): 20 | Corn plant response rating (0 to 100 scale) (corn; 125 g ai/ha): 60 | Plant response rating, Corn (corn; 500 g ai/ha, visual rating): 80 | Corn plant response rating (corn; [3]): 10 | Corn plant response rating (corn; [4]): 30 | Morningglory plant response rating (0 to 100 scale) (morningglory; 125 g ai/ha): 10 | Plant response rating, Morningglory (morningglory; 500 g ai/ha, visual rating): 20 | Morningglory plant response rating (morningglory; [3]): 20 | Morningglory plant response rating (morningglory; [4]): 40 | Cocklebur plant response rating (0 to 100 scale) (cocklebur; 125 g ai/ha): 20 | Plant response rating, Cocklebur (cocklebur; 500 g ai/ha, visual rating): 70 | Cocklebur plant response rating (cocklebur; [3]): 20 | Cocklebur plant response rating (cocklebur; [4]): 50 | Surinam Grass plant response rating (0 to 100 scale) (Surinam grass; 125 g ai/ha): 50 | Plant response rating, Surinam Grass (Surinam grass; 500 g ai/ha, visual rating): 100 | Surinam Grass plant response rating (Surinam grass; [3]): 10 | Surinam Grass plant response rating (Surinam grass; [4]): 20 | Barnyardgrass plant response rating (0 to 100 scale) (barnyardgrass [2]; 125 g ai/ha): 80 | Plant response rating, Barnyardgrass (barnyardgrass [2]; 500 g ai/ha, visual rating): 100 | Barnyardgrass plant response rating (barnyardgrass [2]; [3]): 10 | Barnyardgrass plant response rating (barnyardgrass [2]; [4]): 30

CCNC(=O)c1ccc(F)c(NC(=O)c2cc(C(C)(C)C)nn2CC)n1 [Compound 278]
Rice plant response rating (rice): 60 | Crabgrass, Large plant response rating (0 to 100 scale) (large crabgrass; 125 g ai/ha): 20 | Plant response rating, Crabgrass, Large (large crabgrass; 500 g ai/ha, visual rating): 80 | Crabgrass, Large plant response rating (large crabgrass; [3]): 0 | Crabgrass, Large plant response rating (large crabgrass; [4]): 10 | Pigweed plant response rating (0 to 100 scale) (pigweed; 125 g ai/ha): 100 | Plant response rating, Pigweed (pigweed; 500 g ai/ha, visual rating): 100 | Pigweed plant response rating (pigweed; [3]): 10 | Pigweed plant response rating (pigweed; [4]): 40 | Barnyardgrass plant response rating (barnyardgrass [1]): 60 | Wheat plant response rating (wheat; [3]): 30 | Wheat plant response rating (wheat; [4]): 30 | Ducksalad plant response rating (ducksalad): 80 | Lambsquarters plant response rating (0 to 100 scale) (lambsquarters; 125 g ai/ha): 100 | Plant response rating, Lambsquarters (lambsquarters; 500 g ai/ha, visual rating): 100 | Lambsquarters plant response rating (lambsquarters; [3]): 20 | Lambsquarters plant response rating (lambsquarters; [4]): 30 | Oat, Wild plant response rating (wild oat; [3]): 20 | Oat, Wild plant response rating (wild oat; [4]): 30 | Foxtail, Giant plant response rating (0 to 100 scale) (giant foxtail; 125 g ai/ha): 20 | Plant response rating, Foxtail, Giant (giant foxtail; 500 g ai/ha, visual rating): 80 | Foxtail, Giant plant response rating (giant foxtail; [3]): 0 | Foxtail, Giant plant response rating (giant foxtail; [4]): 10 | Velvetleaf plant response rating (0 to 100 scale) (velvetleaf; 125 g ai/ha): 0 | Plant response rating, Velvetleaf (velvetleaf; 500 g ai/ha, visual rating): 60 | Velvetleaf plant response rating (velvetleaf; [3]): 10 | Velvetleaf plant response rating (velvetleaf; [4]): 10 | Corn plant response rating (0 to 100 scale) (corn; 125 g ai/ha): 0 | Plant response rating, Corn (corn; 500 g ai/ha, visual rating): 20 | Corn plant response rating (corn; [3]): 10 | Corn plant response rating (corn; [4]): 20 | Morningglory plant response rating (0 to 100 scale) (morningglory; 125 g ai/ha): 0 | Plant response rating, Morningglory (morningglory; 500 g ai/ha, visual rating): 10 | Morningglory plant response rating (morningglory; [3]): 0 | Morningglory plant response rating (morningglory; [4]): 20 | Cocklebur plant response rating (0 to 100 scale) (cocklebur; 125 g ai/ha): 0 | Plant response rating, Cocklebur (cocklebur; 500 g ai/ha, visual rating): 0 | Cocklebur plant response rating (cocklebur; [3]): 10 | Cocklebur plant response rating (cocklebur; [4]): 30 | Surinam Grass plant response rating (0 to 100 scale) (Surinam grass; 125 g ai/ha): 20 | Plant response rating, Surinam Grass (Surinam grass; 500 g ai/ha, visual rating): 60 | Surinam Grass plant response rating (Surinam grass; [3]): 10 | Surinam Grass plant response rating (Surinam grass; [4]): 10 | Barnyardgrass plant response rating (0 to 100 scale) (barnyardgrass [2]; 125 g ai/ha): 30 | Plant response rating, Barnyardgrass (barnyardgrass [2]; 500 g ai/ha, visual rating): 80 | Barnyardgrass plant response rating (barnyardgrass [2]; [3]): 0 | Barnyardgrass plant response rating (barnyardgrass [2]; [4]): 10
